Measured values reported in ChEMBL document CHEMBL1132086, “Total synthesis of an antioxidant isolated from yeast via palladium-catalyzed coupling and its application for related compounds” (Bioorg Med Chem Lett, 1999).
pIC50: −log10 of the molar value.

Organism: Cavia porcellus
Assay: Antioxidative activity was evaluated by using the lipid peroxidation of guinea pig liver microsomes
Format: functional

SMILES	pIC50
COc1c2c(cc(O)c1-c1ccc(-c3ccccc3)cc1)OCO2	3.97
COc1c2c(cc(O)c1-c1ccc(C)cc1)OCO2	4.19
COc1c2c(cc(O)c1-c1cc3ccccc3o1)OCO2	4.01
COc1c2c(cc(O)c1-c1ccccc1)OCO2	4.08
Cc1c(C)c2c(c(C)c1O)CC[C@@](C)(CCC[C@H](C)CCC[C@H](C)CCCC(C)C)O2 [ALPHA-TOCOPHEROL]	3.55

These reach a higher pIC50. Values come first.

pIC50	SMILES
4.25	COc1ccc(-c2c(O)cc3c(c2OC)OCO3)cc1
4.36	COc1c2c(cc(O)c1-c1cccs1)OCO2
4.30	CCCOC(=O)c1cc(O)c(O)c(O)c1 [PROPYL GALLATE]
